Common to all, as to format: biochemical
For one test, the target named is Human recombinant MMP14 (Homo sapiens, UniProt P50281). As to the kind of experiment: MMP14 (MTI-MMP) inhibition, 14C collagen release. To be noted: 35° C., 15 hours; read-out: MMP-14 inhibitory activity, IC50.
A further test addresses Human recombinant MMP3 (Homo sapiens, UniProt P08254). As to the kind of experiment: MMP3 (Stromelysin 1) inhibition, 14C casein release. To be noted: 37° C., 16 hours; read-out: MMP-3 inhibitory activity, IC50.
Another test has as its target T1, MMP2 (Gelatinase A) (Homo sapiens, UniProt P08253).
T1 sequence (P08253 110-660): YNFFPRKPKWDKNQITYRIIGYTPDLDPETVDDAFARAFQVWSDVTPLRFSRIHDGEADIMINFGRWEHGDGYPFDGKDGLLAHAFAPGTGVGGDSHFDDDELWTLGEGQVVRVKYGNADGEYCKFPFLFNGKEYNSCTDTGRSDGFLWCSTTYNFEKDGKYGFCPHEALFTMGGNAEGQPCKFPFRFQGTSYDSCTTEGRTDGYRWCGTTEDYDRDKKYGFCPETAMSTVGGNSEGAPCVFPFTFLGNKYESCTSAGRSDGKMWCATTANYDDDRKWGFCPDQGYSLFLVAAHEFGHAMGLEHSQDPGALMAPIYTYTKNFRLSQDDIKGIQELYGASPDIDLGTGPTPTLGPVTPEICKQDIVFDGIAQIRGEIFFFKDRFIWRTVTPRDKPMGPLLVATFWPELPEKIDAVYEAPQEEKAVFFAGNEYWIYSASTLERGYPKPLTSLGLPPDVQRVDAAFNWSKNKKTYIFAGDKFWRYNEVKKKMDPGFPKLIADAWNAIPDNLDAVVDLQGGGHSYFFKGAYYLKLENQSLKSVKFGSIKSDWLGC
As to the kind of experiment: MMP2 (Gelatinase A) inhibition, 14C gelatin release. To be noted: 37° C., 16 hours; read-out: MMP-2 inhibitory activity, IC50.

The next test has as its target T2, Human recombinant MMP1 (Homo sapiens, UniProt P03956).
T2 sequence (P03956 100-469): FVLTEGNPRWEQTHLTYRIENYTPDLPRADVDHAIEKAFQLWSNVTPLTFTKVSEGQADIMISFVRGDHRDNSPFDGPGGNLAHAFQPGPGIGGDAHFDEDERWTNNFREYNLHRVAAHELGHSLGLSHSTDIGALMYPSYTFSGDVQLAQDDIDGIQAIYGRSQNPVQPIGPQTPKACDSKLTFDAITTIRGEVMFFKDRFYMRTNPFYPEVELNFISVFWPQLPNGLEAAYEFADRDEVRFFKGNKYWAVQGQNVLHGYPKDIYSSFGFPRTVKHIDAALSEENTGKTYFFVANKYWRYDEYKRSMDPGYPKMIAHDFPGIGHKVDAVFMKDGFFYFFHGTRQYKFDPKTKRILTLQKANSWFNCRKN
As to the kind of experiment: MMP1 (Collagenase-1) inhibition, 14C collagen release. The conditions noted are these: 35° C., 5 hours; read-out: MMP-1 inhibitory activity, IC50.

The next test concerns the target Human recombinant MMP9 (Homo sapiens, UniProt P14780). As to the kind of experiment: MMP9 (Gelatinase B) inhibition, 14C gelatin release. The conditions noted are these: 37° C., 16 hours; read-out: MMP-9 inhibitory activity, IC50.

Experimental findings from patent publication US7214669B2, “Tetracycline derivatives and methods of use thereof” (Tetragenex Pharmaceuticals, Inc., priority 2001, dated 2007) are described below.

Structures can show the parent of a compound that is named as a salt.

Human recombinant MMP3, sequence (P08254 100-477): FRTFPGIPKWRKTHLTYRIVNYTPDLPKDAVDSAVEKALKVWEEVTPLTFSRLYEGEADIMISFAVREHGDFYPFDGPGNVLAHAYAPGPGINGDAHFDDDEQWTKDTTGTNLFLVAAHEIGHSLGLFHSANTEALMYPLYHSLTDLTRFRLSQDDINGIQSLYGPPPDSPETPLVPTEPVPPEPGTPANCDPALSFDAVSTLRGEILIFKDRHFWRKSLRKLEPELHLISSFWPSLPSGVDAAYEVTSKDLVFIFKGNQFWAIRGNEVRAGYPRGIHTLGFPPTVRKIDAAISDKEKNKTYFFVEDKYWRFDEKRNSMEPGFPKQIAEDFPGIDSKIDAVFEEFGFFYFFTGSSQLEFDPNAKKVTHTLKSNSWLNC
Human recombinant MMP9, sequence (P14780 94-707): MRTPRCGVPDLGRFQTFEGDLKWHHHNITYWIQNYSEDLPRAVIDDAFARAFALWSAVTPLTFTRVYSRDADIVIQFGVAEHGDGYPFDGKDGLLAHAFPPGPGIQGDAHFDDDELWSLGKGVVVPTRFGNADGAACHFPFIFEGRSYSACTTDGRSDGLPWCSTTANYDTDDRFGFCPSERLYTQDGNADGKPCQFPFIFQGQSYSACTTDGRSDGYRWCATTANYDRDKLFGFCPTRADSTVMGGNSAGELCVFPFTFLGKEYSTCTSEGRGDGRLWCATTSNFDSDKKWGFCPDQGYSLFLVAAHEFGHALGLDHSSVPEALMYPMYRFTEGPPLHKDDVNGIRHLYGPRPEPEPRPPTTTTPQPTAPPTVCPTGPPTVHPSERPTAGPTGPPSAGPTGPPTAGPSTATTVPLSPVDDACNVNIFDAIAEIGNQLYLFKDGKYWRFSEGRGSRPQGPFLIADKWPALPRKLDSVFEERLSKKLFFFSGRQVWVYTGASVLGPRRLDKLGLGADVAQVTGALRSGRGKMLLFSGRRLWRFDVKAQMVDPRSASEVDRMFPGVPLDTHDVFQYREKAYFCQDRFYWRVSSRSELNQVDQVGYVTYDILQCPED
Description for Human recombinant MMP14: Protocol for Measuring MMP14 (MTI-MMP) Inhibition by Tetracycline Derivatives
MMP14 activity was determined by the release of soluble ^14C labelled collagen fragments from ^14C acetylated rat skin type I collagen (Methods in Enzymology 80 711, 1981).
• 100 μg ^14C labelled collagen (5–6000 dpm) • 50 mM Tris HCL pH 7.9 • 15 mM CaCl2 0.02% azide • Human recombinant MMP14 50–100 nM • ±Tetracycline (up to 1 mM) in a total volume of 300 μl.
Incubations were at 35° C. for 15 hours. Uncleaved collagen fibrils (which form within the first 10 minutes) were removed by centrifugation at 10,000 g 4° C. 10 minutes 200 μl supernatant were counted in Packard Opti Phase Supermix scintillation fluid using a scintillation counter. Only data derived from within the linear part of the assay (10–70% lysis of the collagen) were utilized. Based on percentage inhibition of the activity of MMP1 alone by a range of concentrations of each sample, the IC50 value for each tetracycline was calculated.
Description for Human recombinant MMP3: Protocol for Measuring MMP3 (Stromelysin 1) Inhibition
• 100 μg ^14C casein (7000 dpm) • 50 mM Tris HCl, pH 7.9 • 15 mM CaCl2, 0.02% azide • Human recombinant MMP3, 0.25–1.0 nM • ±tetracycline (up to 1 mM) in a total volume of 250 μl.
Incubations were at 37° C. for 16 hours. The reaction was stopped by the addition of 500 μl cold 18% TCA and standing on ice for 15 minutes. TCA precipitates were removed by centrifugation at 10,000 g for 10 minutes at 4° C. and 200 μl supernatant was taken for scintillation counting. Only data derived from within the linear part of the assay (10–60% lysis) were utilized. The percentage inhibition of MMP3 by each concentration of the candidate tetracycline was plotted to derive the IC50 value, using linear regression analysis.
Description for Human recombinant MMP9: Protocol for Measuring MMP9 (Gelatinase B) Inhibition
MMP9 activity was determined by the release of trichloracetic acid, TCA soluble fragments from ^14C acetylated rat skin type I (Methods in Enzymology 248, 470, 1995. Biochem. J. 195, 1981)
• 100 μg ^14C labelled gelatin (collagen denatured 60° C. 20 min) • 50 mM Tris HCl pH 7.9 • 15 mM CaCl2, 0.02% azide • Human recombinant MMP9, 1.2–2 nM • ±Tetracycline (up to 1 mM) in a total volume of 250 μl.
Incubations were at 37° C. for 16 hours. The incubations were stopped by cooling the incubations and addition of 50 μl cold 90% (w/v) trichloracetic acid with careful mixing. TCA precipitation was allowed to proceed for 15 minutes at 4° C. prior to centrifugation at 10,000 g for 10 minutes at 4° C. 200 μl of the TCA supernatant was taken for the determination of radioactive content by scintillation counting (Packard Opti Phase Supermix scintillation fluid). Only data derived from within the linear part of the assay (10–70% lysis) were utilized. The percentage inhibition of MMP9 by each tetracycline concentration were plotted to derive the IC50 value.

Regarding `CC1c2c([N+]#N)ccc(O)c2C(=O)C2=C(O)C3(O)C(=O)C(C(N)=O)=C(O)C(N(C)C)C3C(O)C21` (stereo not drawn) [Compound 21, 6-Deoxy-5-hydroxytetracycline-7-diazonium H2SO4], the IC50 at Human recombinant MMP14 is 115 µM; at Human recombinant MMP3 it was > 1000 µM; on MMP2 (Gelatinase A), > 1000 µM; on Human recombinant MMP1, 293 µM; on Human recombinant MMP9 it was 79 µM.
For the molecule `CC1c2c(NC3CCC3)ccc(O)c2C(=O)C2=C(O)C3(O)C(=O)C(C(N)=O)=C(O)C(N(C)C)C3C(O)C21` (stereo not drawn) [Compound 32, 7-Cyclobutylamino-6-deoxy-5-hydroxytetracycline H2SO4], the IC50 on Human recombinant MMP14 amounted to 197 µM; on Human recombinant MMP3, 244 µM; on MMP2 (Gelatinase A) it was 236 µM; on Human recombinant MMP1, 601 µM; at Human recombinant MMP9 it was 214 µM.
With `CC(=O)Nc1ccc(O)c2c1C(C)C1C(=C(O)C3(O)C(=O)C(C(N)=O)=C(O)C(N(C)C)C3C1O)C2=O` (stereo not drawn) [Compound 23, 7-Acetamido-6-deoxy-5-hydroxytetracycline H2SO4], the IC50 is > 1000 µM on Human recombinant MMP14; > 1000 µM on Human recombinant MMP3; 306 µM at MMP2 (Gelatinase A); > 1000 µM on Human recombinant MMP1; > 1000 µM at Human recombinant MMP9.
In the case of `CC(=O)Nc1cc([N+]#N)c(O)c2c1C(C)C1C(=C(O)C3(O)C(=O)C(C(N)=O)=C(O)C(N(C)C)C3C1O)C2=O` (stereo not drawn) [Compound 30, 7-Acetamido-6-deoxy-5-hydroxytetracycline-9-diazonium H2SO4], the IC50 on Human recombinant MMP14 was > 1000 µM; at Human recombinant MMP3, 938 µM; at MMP2 (Gelatinase A), > 1000 µM; at Human recombinant MMP1, 576 µM; on Human recombinant MMP9, > 1000 µM.
Regarding `CC1c2ccc([N+](=O)[O-])c(O)c2C(=O)C2=C(O)C3(O)C(=O)C(C(N)=O)=C(O)CC3C(O)C21` (stereo not drawn) [Compound 35, 4-Dedimethylamino-6-deoxy-5-hydroxy-9-nitrotetracycline], the IC50 on Human recombinant MMP14 turned out to be 108 µM; at Human recombinant MMP3, 218 µM; on MMP2 (Gelatinase A), 249 µM; at Human recombinant MMP1, 947 µM; at Human recombinant MMP9 it was 397 µM.
For `C[C@H]1c2c(N)ccc(O)c2C(=O)C2=C(O)[C@]3(O)C(=O)C(C(N)=O)=C(O)C[C@@H]3[C@@H](O)[C@@H]21` [Compound 48, 4-Dedimethylamino-7-amino-6-deoxy-5-hydroxyltetracycline H2SO4], the IC50 at Human recombinant MMP14 came to 354 µM; on Human recombinant MMP3 it was 506 µM; at MMP2 (Gelatinase A) it was 1930 µM; at Human recombinant MMP1 it was 12800 µM; on Human recombinant MMP9 it was 424 µM.
`CC1c2ccc(N)c(O)c2C(=O)C2=C(O)C3(O)C(=O)C(C(N)=O)=C(O)CC3C(O)C21` (stereo not drawn) [Compound 36, 9-animo-4-dedimethylamino-6-deoxy-5-hydroxytetracycline sulfate]: the 50% inhibitory concentration (IC50) at Human recombinant MMP14 is 608 µM; on Human recombinant MMP3 it was 283 µM; at MMP2 (Gelatinase A), > 1000 µM; at Human recombinant MMP1, 539 µM; at Human recombinant MMP9, > 1000 µM.
With `CC(=O)Nc1cc([N+](=O)[O-])c(O)c2c1C(C)C1C(=C(O)C3(O)C(=O)C(C(N)=O)=C(O)C(N(C)C)C3C1O)C2=O` (stereo not drawn) [Compound 22, 7-Acetamido-9-nitro-6-deoxy-5-hydroxytetracycline H2SO4], the IC50 at Human recombinant MMP14 amounted to 459 µM; on Human recombinant MMP3 it was 462 µM; at MMP2 (Gelatinase A), 254 µM; on Human recombinant MMP1, 396 µM; at Human recombinant MMP9, 341 µM.
The matching figures for `CC(C)CNc1ccc(O)c2c1C(C)C1C(=C(O)C3(O)C(=O)C(C(N)=O)=C(O)C(N(C)C)C3C1O)C2=O` (stereo not drawn) [Compound 25, 7-Isobutylamino-6-deoxy-5-hydroxytetracycline H2SO4]: 185 µM, 303 µM, 397 µM, 974 µM and 148 µM.
As for `CC1c2cccc(O)c2C(=O)C2=C(O)C3(O)C(=O)C(C(N)=O)=C(O)CC3C(O)C21` (stereo not drawn) [Compound 34, 4-Dedimethylamino-6-deoxy-5-hydroxytetracycline], the IC50 at Human recombinant MMP14 was found to be 197 µM; on Human recombinant MMP3 it was 136 µM; at MMP2 (Gelatinase A), 242 µM; on Human recombinant MMP1, 242 µM; on Human recombinant MMP9, 308 µM.
For `CCCCN(CCCC)c1ccc(O)c2c1C(C)C1C(=C(O)C3(O)C(=O)C(C(N)=O)=C(O)C(N(C)C)C3C1O)C2=O` (stereo not drawn) [Compound 17, 7-Di-n-Butylamino-6-deoxy-5-hydroxytetracycline H2SO4], the IC50 on Human recombinant MMP14 was 98 µM; on Human recombinant MMP3, 350 µM; on MMP2 (Gelatinase A), > 1000 µM; on Human recombinant MMP1 it was 122 µM; on Human recombinant MMP9, 110 µM.
“7-Cyclobutylmethylamino-6-deoxy-5-hydroxytetracycline H2SO4 [Compound 33]”: the IC50 at Human recombinant MMP14 was 94 µM; on Human recombinant MMP3, 205 µM; on MMP2 (Gelatinase A), 263 µM; at Human recombinant MMP1 it was 295 µM; on Human recombinant MMP9, 142 µM.
The matching figures for `CCCCCCN(CCCCCC)c1ccc(O)c2c1C(C)C1C(=C(O)C3(O)C(=O)C(C(N)=O)=C(O)C(N(C)C)C3C1O)C2=O` (stereo not drawn) [Compound 18, 7-Di-n-Hexylamino-6-deoxy-5-hydroxytetracycline H2SO4]: 102 µM, 335 µM, 233 µM, 123 µM and 131 µM.
Turning to `C[C@H]1c2c(N(C)C)cc([N+]#N)c(O)c2C(=O)C2=C(O)[C@]3(O)C(=O)C(C(N)=O)=C(O)[C@@H](N(C)C)[C@@H]3[C@@H](O)[C@@H]21` [Compound 31, 7-Dimethylamino-6-deoxy-5-hydroxytetracycline-9-diazonium H2SO4], the IC50 at Human recombinant MMP14 is 593 µM; at Human recombinant MMP3 it was > 1000 µM; on MMP2 (Gelatinase A) it was 258 µM; at Human recombinant MMP1, 621 µM; on Human recombinant MMP9, 311 µM.
In the case of `CCCN(CCC)c1ccc(O)c2c1C(C)C1C(=C(O)C3(O)C(=O)C(C(N)=O)=C(O)C(N(C)C)C3C1O)C2=O` (stereo not drawn) [Compound 24, 7-Di-n-propylamino-6-deoxy-5-hydroxytetracycline H2SO4], the IC50 on Human recombinant MMP14 came out at 160 µM; on Human recombinant MMP3 it was 191 µM; on MMP2 (Gelatinase A), 724 µM; at Human recombinant MMP1, 405 µM; on Human recombinant MMP9, 127 µM.
For `CC(=O)Nc1cc(N)c(O)c2c1C(C)C1C(=C(O)C3(O)C(=O)C(C(N)=O)=C(O)C(N(C)C)C3C1O)C2=O` (stereo not drawn) [Compound 26, 7-Acetamido-9-amino-6-deoxy-5-hydroxytetracycline H2SO4], in that order: 586 µM, > 1000 µM, 413 µM, > 1000 µM and 384 µM.
Regarding `CC1c2c(N(CCC(C)(C)C)CCC(C)(C)C)ccc(O)c2C(=O)C2=C(O)C3(O)C(=O)C(C(N)=O)=C(O)C(N(C)C)C3C(O)C21` (stereo not drawn) [Compound 19, 7-Di-(3,3-dimethylbutyl)amino-6-deoxy-5-hydroxytetracycline H2SO4], the IC50 was found to be 90 µM on Human recombinant MMP14; 394 µM on Human recombinant MMP3; 925 µM at MMP2 (Gelatinase A); 270 µM at Human recombinant MMP1; 98 µM at Human recombinant MMP9.
For `CC1c2c(N=[N+]=[N-])ccc(O)c2C(=O)C2=C(O)C3(O)C(=O)C(C(N)=O)=C(O)C(N(C)C)C3C(O)C21` (stereo not drawn) [Compound 20, 7-Azido-6-deoxy-5-hydroxy-tetracycline H2SO4], the IC50 is 266 µM on Human recombinant MMP14; 281 µM at Human recombinant MMP3; 511 µM on MMP2 (Gelatinase A); 429 µM at Human recombinant MMP1; 162 µM at Human recombinant MMP9.

The term IC50 denotes the concentration that gives 50% inhibition.
